From the supplement of paper PMC10307832

Columns and labels:
Assay in all cases: relative viability (nuclei count vs DMSO), 5 days (fraction); higher = more cells survive
NCI-H1651 = system: NCI-H1651
Method in brief: (§1)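 Lung cancer cell lines in 1536-well plates got either a single drug or a fixed anchor-drug dose together with five library-drug doses (not always all listed) in √10 steps, by pin tool, on the day after seeding. Nuclei were counted after 5 days, and relative viability is the treated-to-vehicle ratio of nuclei counts. Values are medians of duplicate plates.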

NCI-H2405 = system: NCI-H2405
Method in brief: as §1

NCI-H1792 = system: NCI-H1792
Method in brief: as §1

NCI-H460 = system: NCI-H460
Method in brief: as §1

NCI-H1734 = system: NCI-H1734
Method in brief: as §1

NCI-H1395 = system: NCI-H1395
Method in brief: as §1

NCI-H2342 = system: NCI-H2342
Method in brief: as §1

COR-L23 = system: COR-L23
Method in brief: as §1

NCI-H1975 = system: NCI-H1975
Method in brief: as §1

NCI-H3122 = system: NCI-H3122
Method in brief: as §1

NCI-H2023 = system: NCI-H2023
Method in brief: as §1

NCI-H661 = system: NCI-H661
Method in brief: as §1

A-427 = system: A-427
Method in brief: as §1

SW 1573 = system: SW 1573
Method in brief: as §1

LCLC-97TM1 = system: LCLC-97TM1
Method in brief: as §1

NCI-H838 = system: NCI-H838
Method in brief: as §1

LU99A = system: LU99A
Method in brief: as §1

NCI-H23 = system: NCI-H23
Method in brief: as §1

NCI-H2126 = system: NCI-H2126
Method in brief: as §1

SK-MES-1 = system: SK-MES-1
Method in brief: as §1

ChaGo-K-1 = system: ChaGo-K-1
Method in brief: as §1

LK-2 = system: LK-2
Method in brief: as §1

HARA = system: HARA
Method in brief: as §1

LOU-NH91 = system: LOU-NH91
Method in brief: as §1

Nc1cccc2c1CN(C1CCC(=O)NC1=O)C2=O (stereo not drawn) [Lenalidomide] + Nc1nc2[nH]cc(CCc3ccc(C(=O)N[C@@H](CCC(=O)O)C(=O)O)cc3)c2c(=O)[nH]1 [Pemetrexed] (partner 0.2 µM)
relative viability (NCI-H1651; first compound 0.253 µM): 0.608 | relative viability (NCI-H1651; first compound 0.8 µM): 0.497 | relative viability (NCI-H1651; first compound 2.53 µM): 0.586 | relative viability (NCI-H1651; first compound 8 µM): 0.582 | relative viability (NCI-H2405; first compound 0.253 µM): 0.999 | relative viability (NCI-H2405; first compound 0.8 µM): 0.988 | relative viability (NCI-H2405; first compound 2.53 µM): 1.08 | relative viability (NCI-H2405; first compound 8 µM): 0.94 | relative viability (NCI-H1792; first compound 0.253 µM): 1.12 | relative viability (NCI-H1792; first compound 0.8 µM): 0.629 | relative viability (NCI-H1792; first compound 2.53 µM): 1.08 | relative viability (NCI-H1792; first compound 8 µM): 0.336 | relative viability (NCI-H460; first compound 0.253 µM): 0.0811 | relative viability (NCI-H460; first compound 0.8 µM): 0.068 | relative viability (NCI-H460; first compound 2.53 µM): 0.0659 | relative viability (NCI-H460; first compound 8 µM): 0.0603 | relative viability (NCI-H1734; first compound 0.253 µM): 0.465 | relative viability (NCI-H1734; first compound 0.8 µM): 0.465 | relative viability (NCI-H1734; first compound 2.53 µM): 0.433 | relative viability (NCI-H1734; first compound 8 µM): 0.479 | relative viability (NCI-H1395; first compound 0.253 µM): 0.875 | relative viability (NCI-H1395; first compound 2.53 µM): 0.948 | relative viability (NCI-H1395; first compound 8 µM): 0.874 | relative viability (NCI-H2342; first compound 0.253 µM): 0.868 | relative viability (NCI-H2342; first compound 0.8 µM): 0.774 | relative viability (NCI-H2342; first compound 2.53 µM): 0.771 | relative viability (NCI-H2342; first compound 8 µM): 0.577 | relative viability (COR-L23; first compound 0.253 µM): 0.192 | relative viability (COR-L23; first compound 0.8 µM): 0.191 | relative viability (COR-L23; first compound 2.53 µM): 0.191 | relative viability (COR-L23; first compound 8 µM): 0.189 | relative viability (NCI-H1975; first compound 0.253 µM): 0.29 | relative viability (NCI-H1975; first compound 0.8 µM): 0.303 | relative viability (NCI-H1975; first compound 2.53 µM): 0.322 | relative viability (NCI-H1975; first compound 8 µM): 0.332 | relative viability (NCI-H3122; first compound 0.253 µM): 0.205 | relative viability (NCI-H3122; first compound 0.8 µM): 0.202 | relative viability (NCI-H3122; first compound 2.53 µM): 0.193 | relative viability (NCI-H3122; first compound 8 µM): 0.23 | relative viability (NCI-H2023; first compound 0.253 µM): 0.259 | relative viability (NCI-H2023; first compound 0.8 µM): 0.235 | relative viability (NCI-H2023; first compound 2.53 µM): 0.246 | relative viability (NCI-H2023; first compound 8 µM): 0.256 | relative viability (NCI-H661; first compound 0.253 µM): 0.908 | relative viability (NCI-H661; first compound 0.8 µM): 0.935 | relative viability (NCI-H661; first compound 2.53 µM): 0.926 | relative viability (NCI-H661; first compound 8 µM): 0.932 | relative viability (A-427; first compound 0.253 µM): 0.989 | relative viability (A-427; first compound 0.8 µM): 0.931 | relative viability (A-427; first compound 2.53 µM): 1.05 | relative viability (A-427; first compound 8 µM): 0.993 | relative viability (SW 1573; first compound 0.253 µM): 0.751 | relative viability (SW 1573; first compound 0.8 µM): 0.856 | relative viability (SW 1573; first compound 2.53 µM): 0.98 | relative viability (SW 1573; first compound 8 µM): 0.812 | relative viability (LCLC-97TM1; first compound 0.253 µM): 0.175 | relative viability (LCLC-97TM1; first compound 0.8 µM): 0.151 | relative viability (LCLC-97TM1; first compound 2.53 µM): 0.18 | relative viability (LCLC-97TM1; first compound 8 µM): 0.2 | relative viability (NCI-H838; first compound 0.253 µM): 0.247 | relative viability (NCI-H838; first compound 0.8 µM): 0.265 | relative viability (NCI-H838; first compound 2.53 µM): 0.241 | relative viability (NCI-H838; first compound 8 µM): 0.265 | relative viability (LU99A; first compound 0.253 µM): 0.188 | relative viability (LU99A; first compound 0.8 µM): 0.183 | relative viability (LU99A; first compound 2.53 µM): 0.169 | relative viability (LU99A; first compound 8 µM): 0.169 | relative viability (NCI-H23; first compound 0.253 µM): 0.589 | relative viability (NCI-H23; first compound 2.53 µM): 0.861 | relative viability (NCI-H23; first compound 8 µM): 0.694 | relative viability (NCI-H2126; first compound 0.253 µM): 0.655 | relative viability (NCI-H2126; first compound 0.8 µM): 0.679 | relative viability (NCI-H2126; first compound 2.53 µM): 0.75 | relative viability (NCI-H2126; first compound 8 µM): 0.634 | relative viability (SK-MES-1; first compound 0.253 µM): 0.91 | relative viability (SK-MES-1; first compound 0.8 µM): 0.823 | relative viability (SK-MES-1; first compound 2.53 µM): 0.934 | relative viability (SK-MES-1; first compound 8 µM): 0.888 | relative viability (ChaGo-K-1; first compound 0.253 µM): 0.256 | relative viability (ChaGo-K-1; first compound 0.8 µM): 0.255 | relative viability (ChaGo-K-1; first compound 2.53 µM): 0.274 | relative viability (ChaGo-K-1; first compound 8 µM): 0.26 | relative viability (LK-2; first compound 0.253 µM): 0.301 | relative viability (LK-2; first compound 0.8 µM): 0.167 | relative viability (LK-2; first compound 2.53 µM): 0.227 | relative viability (LK-2; first compound 8 µM): 0.175 | relative viability (HARA; first compound 0.253 µM): 0.258 | relative viability (HARA; first compound 2.53 µM): 0.249 | relative viability (HARA; first compound 8 µM): 0.259 | relative viability (LOU-NH91; first compound 0.253 µM): 0.398 | relative viability (LOU-NH91; first compound 0.8 µM): 0.361 | relative viability (LOU-NH91; first compound 2.53 µM): 0.408 | relative viability (LOU-NH91; first compound 8 µM): 0.406
